Laboratory results reported in ChEMBL document CHEMBL5625189, “Discovery of new diaryl ether inhibitors against Mycobacterium tuberculosis targeting the minor portal of InhA” (Eur J Med Chem, 2023).
Converted amounts (≈) assume the structure as drawn.

Assays:
Type in all cases: functional
Settings in all cases: 432 h, time 18 day
[1] = tested on: Mycobacterium tuberculosis; experiment: Antimycobacterial activity against Mycobacterium tuberculosis H37Ra harbouring pVV2 plasmid overexpressing katG assessed as inhibition of bacterial growth incubated for 18 days by drop dilution method
[2] = tested on: Mycobacterium tuberculosis; experiment: Antimycobacterial activity against Mycobacterium tuberculosis H37Ra harbouring pMV261 plasmid overexpressing InhA assessed as inhibition of bacterial growth incubated for 18 days by drop dilution method
[3] = tested on: Mycobacterium tuberculosis; experiment: Antimycobacterial activity against Mycobacterium tuberculosis H37Ra harbouring pMV261 plasmid assessed as inhibition of bacterial growth incubated for 18 days by drop dilution method
[4] = tested on: Mycobacterium tuberculosis; experiment: Antimycobacterial activity against Mycobacterium tuberculosis H37Ra harbouring pVV16 plasmid overexpressing hadABC assessed as inhibition of bacterial growth incubated for 18 days by drop dilution method
[5] = tested on: Mycobacterium tuberculosis; experiment: Antimycobacterial activity against Mycobacterium tuberculosis H37Ra harbouring pVV2 plasmid assessed as inhibition of bacterial growth incubated for 18 days by drop dilution method

CCN(CC)c1ccc2c(OCc3cn(Cc4ccc(Oc5ccccc5)c(O)c4)nn3)cc(=O)oc2c1
MIC [1]: 6.25 µM (≈ 3.2 µg/mL)
MIC [2]: > 25 µM
MIC [3]: 6.25 µM (≈ 3.2 µg/mL)
MIC [4]: 6.25 µM (≈ 3.2 µg/mL)
MIC [5]: 6.25 µM (≈ 3.2 µg/mL)

CCCCCCc1ccc(Oc2ccc(Cn3cc(CNc4ccc([N+](=O)[O-])c5nonc45)nn3)cc2)c(O)c1
MIC [1]: 2.5 µM (≈ 1.36 µg/mL)
MIC [2]: 2.5 µM (≈ 1.36 µg/mL)
MIC [3]: 2.5 µM (≈ 1.36 µg/mL)
MIC [4]: 2.5 µM (≈ 1.36 µg/mL)
MIC [5]: 2.5 µM (≈ 1.36 µg/mL)

Cc1cc(=O)oc2cc(OCc3cn(Cc4ccc(Oc5ccccc5)c(O)c4)nn3)ccc12
MIC [1]: 1.25 µM (≈ 0.569 µg/mL)
MIC [2]: 12.5 µM (≈ 5.69 µg/mL)
MIC [3]: 1.25 µM (≈ 0.569 µg/mL)
MIC [4]: 1.25 µM (≈ 0.569 µg/mL)
MIC [5]: 1.25 µM (≈ 0.569 µg/mL)
